How the values were obtained:
Rat [1] = experiment: concentration in brain after dosing; settings: 3 h; dosed: Potassium Perfluorobutane Sulfonate; 20 mg/kg; oral; Male; Harlan Sprague Dawley
Rat [2] = experiment: concentration in brain after dosing; settings: dosed: Potassium Perfluorobutane Sulfonate, 20 mg/kg, oral
Rat [3] = experiment: concentration in kidney after dosing; settings: dosed: Potassium Perfluorobutane Sulfonate, 20 mg/kg, oral
Rat [4] = experiment: concentration in liver after dosing; settings: dosed: Potassium Perfluorobutane Sulfonate, 20 mg/kg, oral
Rat [5] = experiment: concentration in liver after dosing; settings: 3 h; dosed: Potassium Perfluorobutane Sulfonate; 20 mg/kg; oral; Male; Harlan Sprague Dawley
Rat [6] = experiment: concentration in plasma after dosing; settings: dosed: Potassium Perfluorobutane Sulfonate
rat [7] = experiment: amount in urine after dosing (umol)

O=S(=O)([O-])C(F)(F)C(F)(F)C(F)(F)C(F)(F)F.[K+] [Potassium Perfluorobutane Sulfonate]
Settings	concentration in brain [ng/g]	concentration in liver [ng/g]
Rat [1]	754	–
Rat [5]	–	80000

Settings	concentration in brain, Rat [2] [ng/g]	concentration in kidney, Rat [3] [ng/g]	concentration in liver, Rat [4] [ng/g]
0.5 h, Female, Harlan Sprague Dawley	538	30100	29500
0.5 h, Male, Harlan Sprague Dawley	590	19000	61000
0.5 h, Male, Harlan Sprague Dawley - this seems too small	725	19900	95200
1 h, Female, Harlan Sprague Dawley	–	17600	42000
1 h, Male, Harlan Sprague Dawley	1120	14900	75600
3 h, Female, Harlan Sprague Dawley	–	10900	5790
3 h, Male, Harlan Sprague Dawley	769	19700	87000
6 h, Female, Harlan Sprague Dawley	–	1290	910
6 h, Male, Harlan Sprague Dawley	562	15200	51600
12 h, Male, Harlan Sprague Dawley	–	1960	7420

concentration in plasma [ng/mL], Rat [6]
Settings	4 mg/kg	20 mg/kg
0.25 h, iv, Male, F344	28000	–
0.25 h, oral, Male, Harlan Sprague Dawley	4690	28700
0.5 h, iv, Female, Harlan Sprague-Dawley	11100	–
0.5 h, iv, Male, F344	23800	–
0.5 h, oral, Male, Harlan Sprague Dawley	9170	–
0.75 h, iv, Female, Harlan Sprague-Dawley	7790	–
0.75 h, iv, Male, F344	23800	–
0.75 h, oral, Male, Harlan Sprague Dawley	9060	49600
1 h, iv, Female, Harlan Sprague-Dawley	4090	–
1 h, iv, Male, F344	22000	–
1 h, oral, Male, Harlan Sprague Dawley	12900	–
1.5 h, iv, Male, F344	18500	–
1.5 h, oral, Male, Harlan Sprague Dawley	12100	63600
3 h, iv, Male, F344	10500	–
3 h, oral, Male, Harlan Sprague Dawley	15300	–
5 min, iv, Male, F344	33300	–
5 min, oral, Male, Harlan Sprague Dawley	537	653
6 h, iv, Male, F344	6690	–
6 h, oral, Male, Harlan Sprague Dawley	12500	–
9 h, oral, Male, Harlan Sprague Dawley	8100	15100
12 h, iv, Male, F344	1600	–
12 h, oral, Male, Harlan Sprague Dawley	9160	–
24 h, iv, Male, F344	232	–
24 h, oral, Male, Harlan Sprague Dawley	47.1	364
48 h, oral, Male, Harlan Sprague Dawley	–	42.6

CO [methanol]
rat [7], dosed: methanol, 100 mg/kg, iv, male, CDF(F344)/CrlBR
Settings	amount in urine
0.9577 h	2.05
2.957 h	4.06
5.924 h	5.16
9.972 h	5.6
11.92 h	5.58
14.94 h	5.56

CC(C)(C)O [tert-butyl alcohol]
rat [7], inhalation, duration: 4 hr, F344 (Harlan Winkelmann)
Settings	amount in urine
5.904 h, dosed: methyl tert-butyl ether, 38.7 ppm	0.773
5.97 h, dosed: ethyl tert-butyl ether, 40.6 ppm	0.601
11.88 h, dosed: methyl tert-butyl ether, 38.7 ppm	0.347
11.92 h, dosed: ethyl tert-butyl ether, 40.6 ppm	0.254
11.96 h, dosed: methyl tert-butyl ether, 4.5 ppm	0.24
17.95 h, dosed: methyl tert-butyl ether, 4.5 ppm	0.076
17.97 h, dosed: methyl tert-butyl ether, 38.7 ppm	0.126
17.99 h, dosed: ethyl tert-butyl ether, 40.6 ppm	0.187
23.91 h, dosed: methyl tert-butyl ether, 4.5 ppm	0.0671
23.93 h, dosed: methyl tert-butyl ether, 38.7 ppm	0.0789
23.94 h, dosed: ethyl tert-butyl ether, 40.6 ppm	0.0668
29.91 h, dosed: methyl tert-butyl ether, 38.7 ppm	0.0315
29.93 h, dosed: ethyl tert-butyl ether, 40.6 ppm	0.0668
29.96 h, dosed: methyl tert-butyl ether, 4.5 ppm	0.083
